Key:
[1] = target: T1, Recombinant human 17β-HSD13 (Homo sapiens, UniProt Q7Z5P4); experiment: 17β-HSD13 rapid-fire mass spectrometry assay (RF/MS assay); assay type: biochemical; conditions: inhibition of 17β-HSD13, RF/MS assay; HSD17B13 80 nM, LTB4 10 μM, NAD+ 0.5 mM, RT 3 h
T1 construct: host or cells: Sf9 insect cells
T1 sequence (Q7Z5P4 20-300): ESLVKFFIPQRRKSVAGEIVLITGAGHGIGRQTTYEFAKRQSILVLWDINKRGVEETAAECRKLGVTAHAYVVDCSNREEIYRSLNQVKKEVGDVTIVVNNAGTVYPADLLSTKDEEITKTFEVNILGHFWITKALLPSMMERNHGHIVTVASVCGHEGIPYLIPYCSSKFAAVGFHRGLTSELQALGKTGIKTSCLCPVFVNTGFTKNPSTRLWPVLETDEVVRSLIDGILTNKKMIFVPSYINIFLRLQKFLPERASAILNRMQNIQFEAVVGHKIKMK
Description: 17(3-HSD13 rapid-fire mass spectrometry assay (RF/MS assay). Recombinant human 17β-HSD13 was expressed and purified from sf9 cells at Charles River Labs (Saffron Walden, UK). Leukotriene B4 (Catalog #71160-24-2) and 12-oxoleukotriene B4 (Catalog #20140) were purchased from Cayman Chemicals (Ann Arbor, MI). NAD+ (Catalog #N8285), BSA (Catalog #A7030), DMSO (Catalog #D2650), and Tween-20 (Catalog #11332465001) were purchased from Sigma (St. Louis, MO). Formic acid (Catalog #28905) was from ThermoFisher Scientific and 384 deep well PP microplates (Catalog #784261) were from Greiner Bio-One. In a typical IC50 assay performed in a 384w PP microplate, test compounds (0-100 μM) were incubated with HSD17B13 (80 nM), LTB4 (10 μM), and NAD^+ (0.5 mM) in 10 μL assay buffer (20 mM Tris (pH 7.5), BSA (0.005%), and Tween-20 (0.01%)) at RT for 3 h. The assays were quenched by adding 20 μL of 0.15% aqueous formic acid and the plates were frozen at −80° C. RF/MS analysis was performed at PureHoney Technologies (Billerica, MA) on a RapidFire RF300 system (Agilent Technologies, Inc.) coupled to an API 4000 triple quadrupole mass spectrometer (Sciex) equipped with Agilent RapidFire cartridge type A (C4). The mobile phase was 0.09% formic acid and 0.01% trifluoracetic acid in water (Buffer A) and 0.09% formic acid and 0.01% trifluoracetic acid in 80% aqueous acetonitrile (Buffer B). The RapidFire method conditions were the following: 250 ms aspirate, 3000 ms load/desalt, 4000 ms elute, and 500 ms re-equilibrate. RF-MS/MS was performed in negative polarity (−4500 V), the source temperature was 650° C., and gas 1 and gas 2 settings for nitrogen were set to 50. The curtain gas and collision gas were also nitrogen and were set to 20 and 12, respectively. Leukotriene B4 (335.3) and 12-oxoLeukotriene B4 (333.3) SRM transitions were optimized with Discovery Quant software and extracted ion counts for these analytes were determined.
Data Analysis. 17β-HSD13 enzyme activity was measured as percent conversion of extracted ion counts and normalized to high and low controls to determine percent residual activity at various concentrations of test compounds. Data was fitted to normalized activity (variable slope) versus concentration fit in GraphPad Prism 7 to determine IC50. All experiments were run in duplicates.
By using the above method, the inhibition of 17β-HSD13 was evaluated for the compounds of Formula (I). IC50 ranges are as follows: A is <0.1 μM; B is 0.1 μM-1.0 μM; C is 1.0 μM-10 μm; and D is >10 μM.

[2] = target: T2, human HSD17β13 (stable HEK293T cell line overexpressing human HSD17β13) (Homo sapiens, UniProt Q7Z5P4); experiment: HSD17β13 inhibitor cell-based screening assay (conversion of estradiol-d2 to estrone-d2 by RF-MS); conditions: conversion of estradiol-d2 to estrone-d2 after 24 hours
T2 construct: expressed in transfected cells
T2 sequence (Q7Z5P4 20-300): T1 sequence (Q7Z5P4 20-300)
Outline: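 Cellular IC50 is based on 24-h conversion of estradiol-d2 (5 μM final) to estrone-d2, measured by RF-MS in acetonitrile-precipitated supernatants. Assay uses human HSD17β13-overexpressing HEK293T cells (7.5E3/well, 1% charcoal/dextran FBS MEM), with compounds dosed as a 9-point 1:3 series to 10 μM final. ATPlite luminescence on overexpressing and parent lines measured viability.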

| IC50 [1] | IC50 [2] | SMILES |
| --- | --- | --- |
| < 100 nM | < 100 nM | O=c1c2c(nc(-c3c(C4CC4)cc(F)c(F)c3F)n1Cc1cnco1)sc1c(O)c(Cl)ccc12 [Example 147] |
| < 100 nM | < 100 nM | COc1ccc(-c2nc3sc4c(O)c(Cl)ccc4c3c(=O)n2Cc2cnco2)c(Br)c1 [Example 122] |
| 100 to 1000 nM | 500 to 1000 nM | COc1ccc(-c2nc3sc4c(B(O)O)cccc4c3c(=O)n2Cc2cnco2)c(C2CC2)c1 [Example 11, (2-(2-cyclopropyl-4-methoxyphenyl)-3-(oxazol-5-ylmethyl)-4-oxo-3,4-dihydrobenzo[4,5]thieno[2,3-d]pyrimidin-8-yl)boronic acid] |
| > 10000 nM | 1000 to 100000 nM | COc1ccc(-c2nc3sc4c(NS(C)(=O)=O)cccc4c3c(=O)n2Cc2cnco2)c(C2CC2)c1 [Example 7, N-(2-(2-cyclopropyl-4-methoxyphenyl)-3-(oxazol-5-ylmethyl)-4-oxo-3,4-dihydrobenzo[4,5]thieno[2,3-d]pyrimidin-8-yl)methanesulfonamide] |
| > 10000 nM | 1000 to 100000 nM | COc1ccc(-c2nc3sc4c(F)cccc4c3c(=O)n2Cc2cnco2)c(C2CC2)c1 [Example 13, 2-(2-cyclopropyl-4-methoxyphenyl)-8-fluoro-3-(oxazol-5-ylmethyl)benzo[4,5]thieno[2,3-d]pyrimidin-4(3H)-one] |
| > 10000 nM | 100 to 500 nM | CCCCc1cccc2c1sc1nc(-c3ccc(OC)cc3C3CC3)n(Cc3cnco3)c(=O)c12 [Example 10, 8-butyl-2-(2-cyclopropyl-4-methoxyphenyl)-3-(oxazol-5-ylmethyl)benzo[4,5]thieno[2,3-d]pyrimidin-4(3H)-one] |
| < 100 nM | < 100 nM | O=c1c2c(nc(-c3ccc(F)cc3C3CC3)n1Cc1ccno1)sc1c(O)c(Cl)ccc12 [Example 52, 7-chloro-2-(2-cyclopropyl-4-fluorophenyl)-8-hydroxy-3-(isoxazol-5-ylmethyl)benzo[4,5]thieno[2,3-d]pyrimidin-4(3H)-one] |
| > 10000 nM | 1000 to 100000 nM | COc1ccc(-c2nc3sc4c(OC)cccc4c3c(=O)n2Cc2cnco2)c(C2CC2)c1 [Example 8, 2-(2-cyclopropyl-4-methoxyphenyl)-8-methoxy-3-(oxazol-5-ylmethyl)benzo[4,5]thieno[2,3-d]pyrimidin-4(3H)-one] |
| < 100 nM | < 100 nM | COc1cc(F)c(-c2nc3sc4c(O)c(Cl)ccc4c3c(=O)n2Cc2cnco2)c(C2CC2)c1 [Example 137] |
| < 100 nM | < 100 nM | COc1ccc(-c2nc3sc4c(O)c(Cl)ccc4c3c(=O)n2Cc2cnc(Cl)s2)c(C2CC2)c1 [Example 191] |
|  | 1000 to 100000 nM | COc1ccc(-c2nc3sc4c(O)c(-c5ccccc5)ccc4c3c(=O)n2Cc2cnco2)c(C2CC2)c1 [Example 35, 2-(2-cyclopropyl-4-methoxyphenyl)-8-hydroxy-3-(oxazol-5-ylmethyl)-7-phenylbenzo[4,5]thieno[2,3-d]pyrimidin-4(3H)-one] |
|  | < 100 nM | Cn1ncc2cc(-c3nc4sc5c(O)c(Cl)ccc5c4c(=O)n3Cc3cnc(C(F)(F)F)nc3)c(C3CC3)cc21 [Example 182] |
|  | < 100 nM | Cn1cc2cc(C3CC3)c(-c3nc4sc5c(O)c(Cl)ccc5c4c(=O)n3Cc3cnco3)cc2n1 [Example 195] |
|  | < 100 nM | CCn1c(=O)c(C)cn(CCCn2c(-c3ccc(OC)cc3C3CC3)nc3sc4c(O)c(Cl)ccc4c3c2=O)c1=O [Example 127] |
|  | < 100 nM | O=c1c2c(nc(-c3cc(F)c(F)cc3C3CC3)n1Cc1cc(C(F)F)no1)sc1c(O)c(Cl)ccc12 [Example 65, 7-chloro-2-(2-cyclopropyl-4,5-difluorophenyl)-3-((3-(difluoromethyl)isoxazol-5-yl)methyl)-8-hydroxybenzo[4,5]thieno[2,3-d]pyrimidin-4(3H)-one] |
|  | < 100 nM | O=c1c2c(nc(-c3c(C4CC4)ccc(C(F)(F)F)c3F)n1Cc1cnco1)sc1c(O)c(Cl)ccc12 [Example 134] |
|  | < 100 nM | O=c1c2c(nc(-c3sc4ccccc4c3C3CC3)n1Cc1cnco1)sc1c(O)c(Cl)ccc12 [Example 158] |
|  | < 100 nM | O=c1c2c(nc(-c3cc(F)c(C(F)F)cc3C3CC3)n1Cc1cnco1)sc1c(O)c(Cl)ccc12 [Example 141] |
|  | 1000 to 100000 nM | O=c1c2c(nc(-c3cc(F)c(F)cc3C3CC3)n1Cc1nn[nH]n1)sc1c(O)c(Cl)ccc12 [Example 213] |

Second part, the compound before the results:

| SMILES | IC50 [1] | IC50 [2] |
| --- | --- | --- |
| COc1ccc(-c2nc3sc4c(N)cccc4c3c(=O)n2Cc2cnco2)c(C2CC2)c1 [Example 6, 8-amino-2-(2-cyclopropyl-4-methoxyphenyl)-3-(oxazol-5-ylmethyl)benzo[4,5]thieno[2,3-d]pyrimidin-4(3H)-one] | > 10000 nM | 1000 to 100000 nM |
| O=c1c2c(nc(-c3ccc(F)c(F)c3C3CC3)n1Cc1cnco1)sc1c(O)c(Cl)ccc12 [Example 132] | < 100 nM | < 100 nM |
| Cc1ncc(Cn2c(-c3ccc(F)cc3C3CC3)nc3sc4c(O)c(Cl)ccc4c3c2=O)o1 [Example 44, 7-chloro-2-(2-cyclopropyl-4-fluorophenyl)-8-hydroxy-3-((2-methyloxazol-5-yl)methyl)benzo[4,5]thieno[2,3-d]pyrimidin-4(3H)-one] | < 100 nM | < 100 nM |
| COc1ccc(-c2nc3sc4c(O)c(Cl)ccc4c3c(=O)n2Cc2cnco2)c(C2CCC2)c1 [Example 117] | < 100 nM | 100 to 500 nM |
| COc1ccc(-c2nc3sc4c(O)c(Cl)ccc4c3c(=O)n2Cc2cc(C)no2)c(C2CC2)c1 [Example 39, 7-chloro-2-(2-cyclopropyl-4-methoxyphenyl)-8-hydroxy-3-((3-methylisoxazol-5-yl)methyl)benzo[4,5]thieno[2,3-d]pyrimidin-4(3H)-one] | < 100 nM | < 100 nM |
| CS(=O)(=O)c1ccc(-c2nc3sc4c(O)c(F)ccc4c3c(=O)n2Cc2cnc(C(F)(F)F)nc2)c(C2CC2)c1 [Example 71, 2-(2-cyclopropyl-4-(methylsulfonyl)phenyl)-7-fluoro-8-hydroxy-3-((2-(trifluoromethyl)pyrimidin-5-yl)methyl)benzo[4,5]thieno[2,3-d]pyrimidin-4(3H)-one] | < 100 nM | < 100 nM |
| COc1ccc(-c2nc3sc4c(O)c(Cl)ccc4c3c(=O)n2Cc2cnco2)c(C(C)C)c1 [Example 125] | < 100 nM | < 100 nM |
| COc1ccc(-c2nc3sc4c(O)c(Cl)ccc4c3c(=O)n2Cc2cn(C(F)(F)F)nn2)c(C2CC2)c1 [Example 130] | < 100 nM | < 100 nM |
| O=c1c2c(nc(-c3ccc(OC(F)(F)F)cc3C3CC3)n1Cc1cnco1)sc1c(O)c(Cl)ccc12 [Example 131] | < 100 nM | < 100 nM |
| COc1ccc(-c2nc3sc4c(O)c(Cl)ccc4c3c(=O)n2Cc2cnco2)c(C)c1 [Example 124] |  | 100 to 500 nM |
| COc1ccc(-c2nc3sc4c(O)c(Cl)ccc4c3c(=O)n2CC2=NCCO2)c(C2CC2)c1 [Example 54, 7-chloro-2-(2-cyclopropyl-4-methoxyphenyl)-3-((4,5-dihydrooxazol-2-yl)methyl)-8-hydroxybenzo[4,5]thieno[2,3-d]pyrimidin-4(3H)-one] |  | 100 to 500 nM |
| COc1ccc(-c2nc3sc4c(O)c(Cl)ccc4c3c(=O)n2Cc2ccc(C(F)(F)F)nc2)c(C2CC2)c1 [Example 153] |  | < 100 nM |
| CS(=O)(=O)c1ccc(-c2nc3sc4c(O)c(Cl)ccc4c3c(=O)n2Cc2cnco2)c(C2CC2)c1 [Example 80] |  | < 100 nM |
